Measurements as given in patent publication US8716226B2, “3,5 phenyl-substituted beta amino acid derivatives as integrin antagonists” (Saint Louis University, priority 2012, dated 2014).

Assays:
α5β1 = target: T1, α5β1 (Homo sapiens, UniProt P05556+P08648); assay: K562 cell adhesion assay for α5β1 function; format: cell-based; conditions: K562 cells, adhesion to human plasma fibronectin
T1 construct: K562 cells (American Type Culture Collection, Manassas, Va.) which naturally express high levels of α5β1; endogenous in cells; host or cells: K562 (human erythroleukemia, ATCC)
T1 sequence (P08648 42-894 limits assumed): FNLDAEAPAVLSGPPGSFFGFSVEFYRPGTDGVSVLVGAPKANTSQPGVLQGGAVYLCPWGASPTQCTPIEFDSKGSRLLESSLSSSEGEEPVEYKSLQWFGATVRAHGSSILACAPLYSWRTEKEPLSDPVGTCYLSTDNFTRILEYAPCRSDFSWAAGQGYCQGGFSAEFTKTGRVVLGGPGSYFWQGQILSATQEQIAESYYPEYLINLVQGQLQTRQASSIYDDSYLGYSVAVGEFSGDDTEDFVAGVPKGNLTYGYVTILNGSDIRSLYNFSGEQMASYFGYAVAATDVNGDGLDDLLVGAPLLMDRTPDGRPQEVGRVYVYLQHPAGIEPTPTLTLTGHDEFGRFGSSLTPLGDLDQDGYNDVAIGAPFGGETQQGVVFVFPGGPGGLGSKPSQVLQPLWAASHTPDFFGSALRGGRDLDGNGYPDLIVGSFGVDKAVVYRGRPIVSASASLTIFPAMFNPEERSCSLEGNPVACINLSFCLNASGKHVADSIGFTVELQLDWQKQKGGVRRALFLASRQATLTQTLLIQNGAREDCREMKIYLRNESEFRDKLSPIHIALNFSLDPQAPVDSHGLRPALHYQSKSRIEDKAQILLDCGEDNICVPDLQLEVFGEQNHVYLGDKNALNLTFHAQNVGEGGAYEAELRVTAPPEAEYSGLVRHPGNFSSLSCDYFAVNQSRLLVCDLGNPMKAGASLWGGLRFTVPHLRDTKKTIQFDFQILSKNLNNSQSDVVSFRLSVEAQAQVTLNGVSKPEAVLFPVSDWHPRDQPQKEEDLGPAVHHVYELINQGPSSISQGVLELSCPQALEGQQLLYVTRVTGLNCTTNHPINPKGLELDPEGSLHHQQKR
T1 sequence (P08648 895-1049 partner limits assumed): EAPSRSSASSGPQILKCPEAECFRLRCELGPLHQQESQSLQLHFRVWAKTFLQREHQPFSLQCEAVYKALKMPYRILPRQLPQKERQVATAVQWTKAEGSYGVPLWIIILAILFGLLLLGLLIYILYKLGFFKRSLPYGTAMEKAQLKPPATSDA
T1 sequence (P05556 21-798): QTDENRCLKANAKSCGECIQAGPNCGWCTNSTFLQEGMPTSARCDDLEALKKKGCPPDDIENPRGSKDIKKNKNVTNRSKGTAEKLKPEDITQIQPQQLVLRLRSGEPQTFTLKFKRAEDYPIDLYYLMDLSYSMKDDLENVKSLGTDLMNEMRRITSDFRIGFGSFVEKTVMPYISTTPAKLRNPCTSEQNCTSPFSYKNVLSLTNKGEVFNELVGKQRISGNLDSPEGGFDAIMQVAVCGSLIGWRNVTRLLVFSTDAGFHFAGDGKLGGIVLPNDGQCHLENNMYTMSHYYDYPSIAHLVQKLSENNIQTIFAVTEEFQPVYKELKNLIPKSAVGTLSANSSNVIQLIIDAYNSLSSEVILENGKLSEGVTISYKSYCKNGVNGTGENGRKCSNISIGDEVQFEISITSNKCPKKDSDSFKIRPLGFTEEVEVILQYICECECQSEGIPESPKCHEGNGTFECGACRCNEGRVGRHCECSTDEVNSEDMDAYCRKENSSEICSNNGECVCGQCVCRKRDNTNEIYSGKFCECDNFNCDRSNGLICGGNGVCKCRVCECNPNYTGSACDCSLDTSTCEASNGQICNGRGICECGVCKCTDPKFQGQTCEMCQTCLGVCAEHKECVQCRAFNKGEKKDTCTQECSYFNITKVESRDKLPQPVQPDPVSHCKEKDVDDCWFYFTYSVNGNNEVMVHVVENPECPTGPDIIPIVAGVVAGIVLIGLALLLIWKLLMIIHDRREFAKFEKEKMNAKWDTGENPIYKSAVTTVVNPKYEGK
Protocol: K562 Cell Adhesion Assay for α5β1 Function.
(§1) Purified human plasma fibronectin (Calbiochem/EMD Biosciences) diluted to 5 μg/ml in TS buffer (25 mM Tris 7.4, 150 mM NaCl) was added to wells (100 μl/well) of a 96-well microtiter plate (Immulon 2HB 96-well; VWR Scientific) and incubated overnight at 4° C. The solution in each well was then replaced with 200 μl of blocking buffer (TS with 1% bovine serum albumin), and the plate incubated for 1 hr at 37° C. Compounds were diluted in test tubes to 2× the peak testing concentration in cell adhesion buffer consisting of Hanks Buffered Salts Solution (HBSS, cation-free, Sigma), 0.1% bovine serum albumin, 25 mM HEPES, and 200 μM MnCl2. […] The cells were washed with the cell adhesion buffer, counted using a hemocytometer, centrifuged and resuspended in cell adhesion buffer at 3×10^6 cells/ml. […] Remaining attached cells were detected by addition of 100 μl/well p-nitrophenylphosphate (Sigma) solution (15 mg tablet dissolved in 25 ml 50 mM NaAcetate, pH 5; 0.5% Triton-X-100), incubation for 30 min at 37° C., and then addition of 50 μl/well 1N NaOH to stop the enzyme reaction. Plates were read by colorimetric detection at 405 nm wavelength using a Tecan Safire II plate reader. Concentration-response curves were constructed by non-linear regression (best fit) analysis, and IC50 values were calculated for each compound. […]

αvβ3 = target: T2, αvβ3 (Homo sapiens, UniProt P05106+P06756); assay: 293/b3 cell adhesion assay for αvβ3 function; format: cell-based; conditions: 293/b3 cells, adhesion to human vitronectin
T2 construct: expressed in transfected cells; host or cells: HEK 293 (293/b3)
T2 sequence (P06756 31-889 limits assumed): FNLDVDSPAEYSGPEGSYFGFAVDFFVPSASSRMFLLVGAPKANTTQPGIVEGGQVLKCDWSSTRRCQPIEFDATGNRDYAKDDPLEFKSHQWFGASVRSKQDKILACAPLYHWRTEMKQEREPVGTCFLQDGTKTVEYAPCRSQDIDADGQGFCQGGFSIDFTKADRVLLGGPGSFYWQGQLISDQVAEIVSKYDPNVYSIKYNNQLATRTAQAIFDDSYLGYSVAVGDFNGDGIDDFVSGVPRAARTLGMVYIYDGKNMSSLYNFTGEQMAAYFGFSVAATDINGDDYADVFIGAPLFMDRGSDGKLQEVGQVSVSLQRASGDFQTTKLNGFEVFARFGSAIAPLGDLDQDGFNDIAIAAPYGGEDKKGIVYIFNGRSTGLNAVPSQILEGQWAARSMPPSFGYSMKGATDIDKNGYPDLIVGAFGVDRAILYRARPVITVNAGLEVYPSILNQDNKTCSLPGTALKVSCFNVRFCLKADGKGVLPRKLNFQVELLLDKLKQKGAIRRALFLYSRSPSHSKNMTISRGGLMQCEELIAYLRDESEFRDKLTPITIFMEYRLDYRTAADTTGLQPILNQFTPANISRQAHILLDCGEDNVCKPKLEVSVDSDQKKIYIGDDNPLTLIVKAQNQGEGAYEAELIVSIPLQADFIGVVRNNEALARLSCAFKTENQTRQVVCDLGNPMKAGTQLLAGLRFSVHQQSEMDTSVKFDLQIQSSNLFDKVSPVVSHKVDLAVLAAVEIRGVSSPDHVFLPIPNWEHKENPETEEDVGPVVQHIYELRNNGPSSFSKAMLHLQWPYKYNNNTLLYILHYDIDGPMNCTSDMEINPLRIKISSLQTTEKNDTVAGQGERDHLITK
T2 sequence (P06756 891-1048 partner limits assumed): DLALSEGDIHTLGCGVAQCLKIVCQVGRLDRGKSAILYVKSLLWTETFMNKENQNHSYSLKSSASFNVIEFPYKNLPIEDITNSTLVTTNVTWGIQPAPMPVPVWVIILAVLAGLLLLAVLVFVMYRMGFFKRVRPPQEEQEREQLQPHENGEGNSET
T2 sequence (P05106 27-788): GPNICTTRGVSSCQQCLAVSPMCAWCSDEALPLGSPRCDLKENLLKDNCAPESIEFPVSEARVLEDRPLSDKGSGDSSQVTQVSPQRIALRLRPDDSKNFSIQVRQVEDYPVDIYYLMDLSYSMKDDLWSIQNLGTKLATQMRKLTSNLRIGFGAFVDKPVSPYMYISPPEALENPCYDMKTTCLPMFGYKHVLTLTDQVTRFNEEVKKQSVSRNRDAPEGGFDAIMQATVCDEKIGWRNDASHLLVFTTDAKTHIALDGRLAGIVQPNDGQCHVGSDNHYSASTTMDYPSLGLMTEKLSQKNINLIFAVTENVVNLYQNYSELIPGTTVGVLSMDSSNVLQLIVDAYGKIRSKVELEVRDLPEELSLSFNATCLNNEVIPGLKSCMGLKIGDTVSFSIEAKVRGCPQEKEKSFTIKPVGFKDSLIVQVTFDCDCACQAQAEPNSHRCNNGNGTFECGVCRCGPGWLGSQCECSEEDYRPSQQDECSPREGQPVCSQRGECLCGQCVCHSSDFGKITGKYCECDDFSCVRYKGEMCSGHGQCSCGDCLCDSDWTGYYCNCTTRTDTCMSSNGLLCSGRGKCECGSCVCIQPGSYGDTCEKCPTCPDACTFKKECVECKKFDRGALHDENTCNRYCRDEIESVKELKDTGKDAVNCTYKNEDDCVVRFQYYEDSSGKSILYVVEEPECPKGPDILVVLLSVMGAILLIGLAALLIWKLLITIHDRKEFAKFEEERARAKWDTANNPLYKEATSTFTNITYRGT
Protocol: 293/b3 Cell Adhesion Assay for αvβ3 Function.
as §1, with “human vitronectin” for “human plasma fibronectin”, “to 0.25” for “to 5”, “NaAcetate, pH5;” for “NaAcetate, pH 5;”

[1] = target: T3, recombinant human biotinylated integrin αvβ8 (Homo sapiens, UniProt P06756+P26012); assay: Solid phase receptor assay for αvβ8 function; conditions: purified integrin binding to LAP-coated plate
T3 construct: biotin (biotinylated heterodimer); purchased R&D Systems
T3 sequence (P06756 31-889 limits assumed): as the sequence (P06756 31-889 limits assumed) above
T3 sequence (P06756 891-992 partner limits assumed): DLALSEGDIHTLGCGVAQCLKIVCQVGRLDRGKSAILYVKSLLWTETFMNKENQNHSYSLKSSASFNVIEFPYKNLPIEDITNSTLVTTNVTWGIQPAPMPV
T3 sequence (P26012 43-684 limits assumed): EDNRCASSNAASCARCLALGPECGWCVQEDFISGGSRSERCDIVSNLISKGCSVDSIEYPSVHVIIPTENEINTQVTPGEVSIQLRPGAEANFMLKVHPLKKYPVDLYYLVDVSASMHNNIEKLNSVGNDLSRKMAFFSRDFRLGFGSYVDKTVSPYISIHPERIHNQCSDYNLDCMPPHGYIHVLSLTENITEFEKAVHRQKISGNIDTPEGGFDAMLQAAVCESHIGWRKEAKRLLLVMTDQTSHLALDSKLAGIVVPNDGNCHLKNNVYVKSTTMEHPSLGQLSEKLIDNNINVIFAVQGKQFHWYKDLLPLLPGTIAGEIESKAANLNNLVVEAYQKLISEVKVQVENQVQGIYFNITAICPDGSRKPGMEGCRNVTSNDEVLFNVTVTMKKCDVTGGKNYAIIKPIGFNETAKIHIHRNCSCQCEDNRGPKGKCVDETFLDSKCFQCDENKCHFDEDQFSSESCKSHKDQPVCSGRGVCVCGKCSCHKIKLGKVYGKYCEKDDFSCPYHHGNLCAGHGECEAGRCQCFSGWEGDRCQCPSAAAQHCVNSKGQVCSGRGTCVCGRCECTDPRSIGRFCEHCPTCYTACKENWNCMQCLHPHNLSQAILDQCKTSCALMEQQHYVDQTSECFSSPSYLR
Protocol: Solid Phase Receptor Assay for αvβ8 Function.
Purified human LAP protein (R&D Systems, Inc) diluted to 0.5 μg/ml in TBS buffer (25 mM Tris 7.4, 137 mM NaCl, 2.7 mM KCl, 1 mM CaCl2, 1 mM MgCl2, 1 mM MnCl2) was added to wells (100 μl/well) of a 96-well half-well transparent microtiter plate (Costar 3690), and incubated overnight at 4° C. Wells were washed 3 times with 150 μl TBS, and 200 μl of blocking buffer (TBS with 1% bovine serum albumin) were added. The plate was incubated for 1 hr at 37° C., and then washed 3× with TBS/0.1% bovine serum albumin. Purified recombinant human biotinylated integrin αvβ8 (R&D Systems) was diluted to 0.1 μg/ml in TBS/0.1% bovine serum albumin. Compounds were diluted into the integrin solution and then 50 μl was added to empty wells of the washed LAP-coated plate, according to a standard template, with each sample repeated in triplicate. After incubation for one hour at room temperature, the plate was washed 3× with 150 μl of TBS/0.1% BSA. 50 μl of streptavidin-conjugated horseradish peroxidase (R&D Systems) was added to the wells, and the plate incubated for 20 min at room temperature. […] Plates were read by colorimetric detection at 650 nm wavelength using a Tecan Safire II plate reader. Concentration-response curves were constructed by non-linear regression (best fit) analysis, and IC50 values were calculated for each compound.

CC(C)(C)c1cc(Br)cc([C@H](CC(=O)O)NC(=O)CNC(=O)c2cc(O)cc(NC3=NCC(O)CN3)c2)c1 (stereo partly drawn) [Example 1, (3S)—N-[3-hydroxy-5-[(1,4,5,6-tetrahydro-5-hydroxy-2-pyrimidinyl)amino]benzoyl]glycyl-3-(3-bromo-5-tert-butylphenyl)-β-alanine]
IC50 (α5β1): 4.2 nM | IC50 (αvβ3): 0.8 nM | IC50 [1]: 0.23 nM
